This is an account of results in US12590091B2, “1H-pyrrolo[3,2-C]pyridine and 1H-pyrrolo[2,3-C]pyridine derivatives as TLR9 inhibitors for the treatment of fibrosis” (BRISTOL-MYERS SQUIBB COMPANY, priority 2020, dated 2026).

Assay [1] deals with T1, human TLR7 (Homo sapiens, UniProt Q9NYK1).
T1 construct: host or cells: HEK-Blue cells
T1 sequence (Q9NYK1 27-1049): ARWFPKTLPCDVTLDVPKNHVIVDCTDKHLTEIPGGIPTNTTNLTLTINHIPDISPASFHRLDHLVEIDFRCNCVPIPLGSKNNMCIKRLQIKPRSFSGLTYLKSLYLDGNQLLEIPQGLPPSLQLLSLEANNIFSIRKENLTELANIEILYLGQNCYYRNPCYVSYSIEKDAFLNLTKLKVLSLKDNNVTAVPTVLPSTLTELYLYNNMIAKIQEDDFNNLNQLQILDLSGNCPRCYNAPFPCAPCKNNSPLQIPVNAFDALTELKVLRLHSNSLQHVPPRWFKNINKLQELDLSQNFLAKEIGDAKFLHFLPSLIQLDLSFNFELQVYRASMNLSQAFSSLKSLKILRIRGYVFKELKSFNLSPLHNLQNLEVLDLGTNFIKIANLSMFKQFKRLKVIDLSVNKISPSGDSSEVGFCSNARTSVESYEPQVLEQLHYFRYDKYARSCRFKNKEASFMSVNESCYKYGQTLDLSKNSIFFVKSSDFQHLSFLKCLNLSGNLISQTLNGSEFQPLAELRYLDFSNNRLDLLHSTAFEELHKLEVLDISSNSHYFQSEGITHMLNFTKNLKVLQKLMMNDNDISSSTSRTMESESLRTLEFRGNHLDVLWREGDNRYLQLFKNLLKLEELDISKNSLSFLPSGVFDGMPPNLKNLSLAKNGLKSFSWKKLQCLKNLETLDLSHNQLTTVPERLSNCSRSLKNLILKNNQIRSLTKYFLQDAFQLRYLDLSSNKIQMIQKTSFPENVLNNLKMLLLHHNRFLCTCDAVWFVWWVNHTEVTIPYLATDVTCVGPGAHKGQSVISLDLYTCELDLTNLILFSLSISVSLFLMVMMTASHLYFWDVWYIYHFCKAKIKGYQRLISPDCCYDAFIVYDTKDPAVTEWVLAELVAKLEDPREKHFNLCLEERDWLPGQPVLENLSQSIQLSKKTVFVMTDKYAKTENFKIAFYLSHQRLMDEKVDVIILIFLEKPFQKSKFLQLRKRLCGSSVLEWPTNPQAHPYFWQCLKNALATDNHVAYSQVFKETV
Description: TLR7 inhibition reporter assay (HEK-Blue cells, SEAP reporter). As to conditions: HEK-Blue cells overexpressing human TLR7, stimulated with gardiquimod 7.5 μM, 22 hour incubation. The class given is cell-based. In short, it runs like this:
(§1)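 HEK-Blue cells overexpressing human TLR7, TLR8 or TLR9 carry a SEAP reporter driven by NF-κB/AP-1 sites. Compounds (0.05 nM–50 μM) were preincubated 30 min at room temperature, then cells were stimulated with gardiquimod 7.5 μM (TLR7), R848 15.9 μM (TLR8) or ODN2006 5 nM (TLR9) for 22 h at 37 °C.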
A general note: In a reporter assay the amount or activity of a reporter protein is the signal.

The target in assay [2] is T2, human TLR8 (Homo sapiens, UniProt Q9NR97).
T2 construct: host or cells: HEK-Blue cells
T2 sequence (Q9NR97 27-1041): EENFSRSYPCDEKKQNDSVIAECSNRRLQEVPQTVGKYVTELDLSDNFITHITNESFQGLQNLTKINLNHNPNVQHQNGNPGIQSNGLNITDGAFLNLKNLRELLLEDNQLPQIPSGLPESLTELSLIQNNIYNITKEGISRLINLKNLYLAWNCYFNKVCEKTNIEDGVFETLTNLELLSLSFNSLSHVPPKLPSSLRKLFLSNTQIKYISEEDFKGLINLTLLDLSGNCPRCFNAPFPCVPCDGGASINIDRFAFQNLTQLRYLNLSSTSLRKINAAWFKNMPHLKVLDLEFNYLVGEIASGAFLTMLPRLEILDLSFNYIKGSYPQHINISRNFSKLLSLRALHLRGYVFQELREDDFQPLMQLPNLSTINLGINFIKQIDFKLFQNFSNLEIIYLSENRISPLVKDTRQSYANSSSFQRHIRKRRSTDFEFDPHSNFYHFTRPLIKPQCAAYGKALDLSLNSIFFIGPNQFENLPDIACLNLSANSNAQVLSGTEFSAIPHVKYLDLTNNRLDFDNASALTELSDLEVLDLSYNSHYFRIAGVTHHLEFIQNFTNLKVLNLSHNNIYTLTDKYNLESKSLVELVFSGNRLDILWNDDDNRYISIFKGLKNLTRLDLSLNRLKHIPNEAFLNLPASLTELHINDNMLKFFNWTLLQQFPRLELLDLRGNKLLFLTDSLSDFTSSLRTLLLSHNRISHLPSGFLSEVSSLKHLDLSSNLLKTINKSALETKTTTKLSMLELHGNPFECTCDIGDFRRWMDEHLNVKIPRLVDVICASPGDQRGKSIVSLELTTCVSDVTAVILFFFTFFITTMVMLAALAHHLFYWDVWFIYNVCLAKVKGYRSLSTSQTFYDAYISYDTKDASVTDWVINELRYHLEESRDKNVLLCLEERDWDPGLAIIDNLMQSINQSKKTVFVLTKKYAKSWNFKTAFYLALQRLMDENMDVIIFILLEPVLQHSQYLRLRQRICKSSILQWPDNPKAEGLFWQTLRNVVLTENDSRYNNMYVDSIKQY
In words: TLR8 inhibition reporter assay (HEK-Blue cells, SEAP reporter). The class given is cell-based. The following applies: HEK-Blue cells overexpressing human TLR8, stimulated with R848 15.9 μM, 22 hour incubation. In short, it runs like this:
as §1

As for `CCOC(=O)N1CCC(N2CCC(c3cc4c(cn3)cc(-c3ccc(OC)c(OC)c3)n4C)CC2)CC1` [Example 7, Ethyl 4-(2-(3,4-dimethoxyphenyl)-1-methyl-1H-pyrrolo[3,2-c]pyridin-6-yl)-[1,4′-bipiperidine]-1′-carboxylate], the IC50 (usually the concentration at which inhibition is half-maximal) in assay [1] is more than 50 µM; in assay [2], 5.2 µM.
On the same counts, the results for `COc1ccc(-c2cc3cnc(C4CCN(Cc5ccc(C)nc5)CC4)cc3n2C)cc1OC` [Example 8, 2-(3,4-Dimethoxyphenyl)-1-methyl-6-(1-((6-methylpyridin-3-yl)methyl)piperidin-4-yl)-1H-pyrrolo[3,2-c]pyridine] are 6.8 µM and 25.9 µM.
The like results for `Cc1nc(-c2cc(F)c(N3CCN(C4CCOCC4)CC3)c(F)c2)cc2c1cc(-c1ccc(S(C)(=O)=O)cc1)n2C` [Example 89, 6-(3,5-difluoro-4-(4-(tetrahydro-2H-pyran-4-yl)piperazin-1-yl)phenyl)-1,4-dimethyl-2-(4-(methylsulfonyl)phenyl)-1H-pyrrolo[3,2-c]pyridine] were, in that order, more than 50 µM and more than 50 µM.
Take `Cc1nc(-c2ccc(C3(O)CCN(CC(C)C)CC3)c(F)c2)cc2c1cc(-c1ccc(S(C)(=O)=O)cc1)n2C` [Example 90, 4-(4-(1,4-dimethyl-2-(4-(methylsulfonyl)phenyl)-1H-pyrrolo[3,2-c]pyridin-6-yl)-2-fluorophenyl)-1-isobutylpiperidin-4-ol]: the 50% inhibitory concentration (IC50) in assay [1] turned out to be 7.8 µM; in assay [2], 22.1 µM.
`Cc1nc(-c2ccc(C3(O)CC4CCC(C3)N4CC(C)C)c(F)c2)cc2c1cc(-c1ccc(S(C)(=O)=O)cc1)n2C` [Example 91, (1R,3r,5S)-3-(4-(1,4-dimethyl-2-(4-(methylsulfonyl)phenyl)-1H-pyrrolo[3,2-c]pyridin-6-yl)-2-fluorophenyl)-8-isobutyl-8-azabicyclo[3.2.1]octan-3-ol]: the values for the IC50 in assay [1] and in assay [2] were 30.8 µM and 1.3 µM, respectively.
On the same counts, the results for `COCCN1CCC(O)(c2ccc(-c3cc4c(cc(-c5ccc(S(C)(=O)=O)cc5)n4C)c(C)n3)cc2F)CC1` [Example 92, 4-(4-(1,4-dimethyl-2-(4-(methylsulfonyl)phenyl)-1H-pyrrolo[3,2-c]pyridin-6-yl)-2-fluorophenyl)-1-(2-methoxyethyl)piperidin-4-ol] are 7 µM and more than 50 µM.
On the same counts, the results for `Cc1nc(-c2ccc(C3(O)CCN(C4CC4)CC3)c(F)c2)cc2c1cc(-c1ccc(S(C)(=O)=O)cc1)n2C` [Example 93, 1-cyclopropyl-4-(4-(1,4-dimethyl-2-(4-(methylsulfonyl)phenyl)-1H-pyrrolo[3,2-c]pyridin-6-yl)-2-fluorophenyl)piperidin-4-ol] are 9.9 µM and more than 50 µM.
On the same counts, the results for `Cc1nc(-c2cc(F)c(C3(O)CCN(CC(C)C)CC3)cc2F)cc2c1cc(-c1ccc(S(C)(=O)=O)cc1)n2C` [Example 94, 4-(4-(1,4-dimethyl-2-(4-(methylsulfonyl)phenyl)-1H-pyrrolo[3,2-c]pyridin-6-yl)-2,5-difluorophenyl)-1-isobutylpiperidin-4-ol] are 3.6 µM and 2.5 µM.
For `COCCN1CCC(O)(c2cc(F)c(-c3cc4c(cc(-c5ccc(S(C)(=O)=O)cc5)n4C)c(C)n3)cc2F)CC1` [Example 95, 4-(4-(1,4-dimethyl-2-(4-(methylsulfonyl)phenyl)-1H-pyrrolo[3,2-c]pyridin-6-yl)-2,5-difluorophenyl)-1-(2-methoxyethyl)piperidin-4-ol], the IC50 in assay [1] came out at 3.2 µM; in assay [2], 2.7 µM.
The like results for `Cc1nc(-c2cc(F)c(C3(O)CCN(C4CC4)CC3)cc2F)cc2c1cc(-c1ccc(S(C)(=O)=O)cc1)n2C` [Example 96, 1-cyclopropyl-4-(4-(1,4-dimethyl-2-(4-(methylsulfonyl)phenyl)-1H-pyrrolo[3,2-c]pyridin-6-yl)-2,5-difluorophenyl)piperidin-4-ol] were, in that order, 2.9 µM and 4.1 µM.
The like results for `Cc1nc(-c2cc(F)c(N3CCN4CCCC4C3)cc2F)cc2c1cc(-c1ccc(S(C)(=O)=O)cc1)n2C` (stereo not drawn) [Example 97, 6-(2,5-difluoro-4-(hexahydropyrrolo[1,2-a]pyrazin-2(1H)-yl)phenyl)-1,4-dimethyl-2-(4-(methylsulfonyl)phenyl)-1H-pyrrolo[3,2-c]pyridine] were, in that order, 3.8 µM and 5.3 µM.
Regarding `Cc1nc(-c2cc(F)c(N3CCN4CCCC4C3)c(F)c2)cc2c1cc(-c1ccc(S(C)(=O)=O)cc1)n2C` (stereo not drawn) [Example 98, 6-(3,5-difluoro-4-(hexahydropyrrolo[1,2-a]pyrazin-2(1H)-yl)phenyl)-1,4-dimethyl-2-(4-(methylsulfonyl)phenyl)-1H-pyrrolo[3,2-c]pyridine], the IC50 was 0.7 µM in assay [1] and more than 50 µM in assay [2].
